Test results from ChEMBL document CHEMBL5113491, “Discovery of N-benzylarylamide derivatives as novel tubulin polymerization inhibitors capable of activating the Hippo pathway” (Eur J Med Chem, 2022).
Active and inactive are the calls of the source. No cut-off for these calls is given here.

Tests used:
KYSE-450 = experiment: Antiproliferative activity against human KYSE-450 cells assessed as inhibition of cell growth measured after 48 hrs by MTT assay; assay type: functional, cell-based; conditions: KYSE-450, 48 h
HCT-116 = experiment: Antiproliferative activity against human HCT-116 cells assessed as inhibition of cell growth measured after 48 hrs by MTT assay; assay type: functional, cell-based; conditions: HCT-116, 48 h
MGC-803 = experiment: Antiproliferative activity against human MGC-803 cells assessed as inhibition of cell growth measured after 48 hrs by MTT assay; assay type: functional, cell-based; conditions: MGC-803, 48 h
Sus scrofa = species: Sus scrofa; experiment: Inhibition of porcine brain microtubule polymerization at 3 umol/L measured after 5 sec by fluorescence based assay; conditions: dose 3.0 µmol/L
[1] = Inhibition of porcine brain microtubule polymerization measured after 1 hrs by fluorescence based assay; parameters: species or system Sus scrofa

Compound	IC50 (HCT-116) [nM]	IC50 (MGC-803) [nM]	inhibition (Sus scrofa)	IC50 (KYSE-450) [nM]	IC50 [1] [nM]
C/C=C/C(=O)N(Cc1ccc(OC)c(C)c1)c1cc(OC)c(OC)c(OC)c1	23500	14500	–	32900	–
COc1ccc(CNc2cc(OC)c(OC)c(OC)c2)cc1C	60800	56800	–	73800	–
C/C=C/C(=O)N(Cc1cccc(O)c1)c1cc(OC)c(OC)c(OC)c1	6700	14100	–	14700	–
C/C=C/C(=O)N(Cc1cc(OC)c(OC)c(OC)c1)c1ccc(OC)c(O)c1	8450	6150	–	9160	–
COc1ccc(CNc2cc(OC)c(OC)c(OC)c2)cc1	18400	11400	–	4890	–
COc1ccc(CNc2cc(OC)c(OC)c(OC)c2)cc1OC	50800	46200	–	57200	–
COc1ccc(CNc2cc(OC)c(OC)c(OC)c2)cc1[N+](=O)[O-]	18200	19400	–	16800	–
COc1ccc(NCc2cc(OC)c(OC)c(OC)c2)cc1O	5230	9590	Active	4180	–
COc1ccc(CNc2cc(OC)c(OC)c(OC)c2)cc1Br	48100	29400	–	39800	–
COc1ccc(CNc2cc(OC)c(OC)c(OC)c2)cc1Cl	41700	46200	–	47800	–
COc1ccc(CNc2cc(OC)c(OC)c(OC)c2)cc1F	32200	39700	–	46200	–
COc1cc(NCc2ccc(Br)cc2)cc(OC)c1OC	> 80000	> 80000	–	> 80000	–
COC(=O)c1cc(CNc2cc(OC)c(OC)c(OC)c2)ccc1OC	38100	49600	–	41100	–
COc1ccc(/C=C\c2cc(OC)c(OC)c(OC)c2)cc1O [COMBRETASTATIN A4]	10	8	–	12	6710
COc1ccc(CNc2cc(OC)c(OC)c(OC)c2)cc1N	8270	7970	–	2210	–
COc1ccc(N(Cc2cc(OC)c(OC)c(OC)c2)C(=O)CCl)cc1O	22500	24500	–	29800	–
C/C=C/C(=O)N(Cc1ccc(OC)c(OC)c1)c1cc(OC)c(OC)c(OC)c1	32800	20100	–	39100	–
COc1cc(NCc2ccc(Cl)cc2)cc(OC)c1OC	> 80000	> 80000	–	> 80000	–
COc1cc(NCc2cccc(O)c2)cc(OC)c1OC	67700	57600	–	71300	–
COc1cc(NCc2ccc(C)cc2)cc(OC)c1OC	> 80000	> 80000	–	> 80000	–
C/C=C/C(=O)N(Cc1ccc(OC)c(Br)c1)c1cc(OC)c(OC)c(OC)c1	2800	6430	–	10500	–
COc1ccc(N(Cc2cc(OC)c(OC)c(OC)c2)C(=O)CN=[N+]=[N-])cc1O	38800	22400	–	26100	–
COc1cc(NCc2ccccc2)cc(OC)c1OC	> 80000	> 80000	–	> 80000	–
COc1cc2c(c(OC)c1OC)-c1ccc(OC)c(=O)cc1[C@@H](NC(C)=O)CC2 [COLCHICINE]	81	62	–	77	–
COc1ccc(CNc2cc(OC)c(OC)c(OC)c2)cc1O	3220	1490	Active	1400	–

Further compounds by falling IC50 (HCT-116), results first:

IC50 (HCT-116) [nM]	IC50 (MGC-803) [nM]	inhibition (Sus scrofa)	Compound	IC50 (KYSE-450) [nM]	IC50 [1] [nM]
1420	7100	–	C/C=C/C(=O)N(Cc1ccc(OC)c(Cl)c1)c1cc(OC)c(OC)c(OC)c1	10100	–
1160	1650	–	C/C=C/C(=O)N(Cc1ccc(OC)c(F)c1)c1cc(OC)c(OC)c(OC)c1	1400	–
670	590	–	C/C=C/C(=O)N(Cc1ccc(OC)c([N+](=O)[O-])c1)c1cc(OC)c(OC)c(OC)c1	510	–
520	160	–	COc1ccc(CN(C(=O)CO)c2cc(OC)c(OC)c(OC)c2)cc1O	370	–
500	450	–	C/C=C/C(=O)N(Cc1ccc(OC)cc1)c1cc(OC)c(OC)c(OC)c1	420	–
410	120	–	COc1ccc(CN(C(=O)CN=[N+]=[N-])c2cc(OC)c(OC)c(OC)c2)cc1O	160	–
310	270	–	COc1ccc(CN(C(=O)C[Se]C#N)c2cc(OC)c(OC)c(OC)c2)cc1O	280	–
310	210	–	COc1ccc(CN(C(=O)C(C)C)c2cc(OC)c(OC)c(OC)c2)cc1O	390	–
310	170	–	C#CC(=O)N(Cc1ccc(OC)c(O)c1)c1cc(OC)c(OC)c(OC)c1	570	–
300	150	–	C/C=C/C(=O)N(Cc1ccc(OC)c(N)c1)c1cc(OC)c(OC)c(OC)c1	310	–
290	320	–	COc1ccc(CN(C(=O)C=C(C)C)c2cc(OC)c(OC)c(OC)c2)cc1O	280	–
270	79	–	COc1ccc(CN(C(C)=O)c2cc(OC)c(OC)c(OC)c2)cc1O	160	–
250	84	–	COc1ccc(CN(C(=O)CCl)c2cc(OC)c(OC)c(OC)c2)cc1O	210	–
230	79	–	COCC(=O)N(Cc1ccc(OC)c(O)c1)c1cc(OC)c(OC)c(OC)c1	460	–
220	540	–	COc1ccc(CN(C(=O)CCCCCl)c2cc(OC)c(OC)c(OC)c2)cc1O	770	–
200	390	–	C=C(C)C(=O)N(Cc1ccc(OC)c(O)c1)c1cc(OC)c(OC)c(OC)c1	200	–
180	140	–	C/C=C/C=C/C(=O)N(Cc1ccc(OC)c(O)c1)c1cc(OC)c(OC)c(OC)c1	180	–
170	66	–	CCCCC(=O)N(Cc1ccc(OC)c(O)c1)c1cc(OC)c(OC)c(OC)c1	300	–
150	140	–	COc1ccc(CN(C(=O)CCCl)c2cc(OC)c(OC)c(OC)c2)cc1O	110	–
140	120	–	COc1ccc(CN(C(=O)C(C)Br)c2cc(OC)c(OC)c(OC)c2)cc1O (centres undefined)	160	–
98	62	–	C=CC(=O)N(Cc1ccc(OC)c(O)c1)c1cc(OC)c(OC)c(OC)c1	160	–
95	70	–	CCC/C=C/C(=O)N(Cc1ccc(OC)c(O)c1)c1cc(OC)c(OC)c(OC)c1	57	–
68	140	–	COc1ccc(CN(C(=O)CBr)c2cc(OC)c(OC)c(OC)c2)cc1O	120	–
63	58	–	CC/C=C/C(=O)N(Cc1ccc(OC)c(O)c1)c1cc(OC)c(OC)c(OC)c1	72	–
61	50	–	CCC(=O)N(Cc1ccc(OC)c(O)c1)c1cc(OC)c(OC)c(OC)c1	98	–
59	71	–	COc1ccc(CN(C(=O)/C=C/CBr)c2cc(OC)c(OC)c(OC)c2)cc1O	100	–
49	59	–	COc1ccc(CN(C(=O)C2CC2)c2cc(OC)c(OC)c(OC)c2)cc1O	80	–
